Assay results: patent publication US20230107642A1 (Erasca, Inc., priority 2020, published 2023)

Molecular target: T1, Cys12 of the KRAS 4B G12C protein (Homo sapiens, UniProt P01116, G12C)
T1 construct: This protein contained 188 amino acids in total, including an N-terminal 6-Histidine tag; made in house; host or cells: E. coli BL21
Assay: In vitro covalent adduct formation (CAF) assay, LC-MS intact mass
Assay type: binding
Conditions: 10 uM compound, 60 min
Procedure, shortened: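 Percent covalent modification from intact-mass LC-MS, by relative free versus adducted protein (adducts within 1 Da of expected mass). Reaction: 10 μM compound with 5 μM E. coli-expressed, GDP-exchanged KRAS 4B G12C in TBS pH 7.4, 4% DMSO, 1 h at 22° C.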

Compared with `C=CC(=O)N1CCN(c2nc(=O)n3c4c(c(-c5cc(Cl)c(F)cc5F)c(C(F)(F)F)cc24)SC[C@@H]3CN2CCN(CC)CC2)CC1` (atropisomer, axis not shown) [Example 1337, (3S,10S)-7-(4-acryloylpiperazin-1-yl)-10-(5-chloro-2,4-difluorophenyl)-3-((4-ethylpiperazin-1-yl)methyl)-9-(trifluoromethyl)-2,3-dihydro-5H-[1,4]thiazino[2,3,4-ij]quinazolin-5-one], `C=CC(=O)N1[C@H](C)CN(c2nc(=O)n3c4c(c(-c5cc(Cl)c(F)cc5F)c(C(F)(F)F)cc24)SC[C@@H]3CN2CCN(CC)CC2)C[C@@H]1C` (atropisomer, axis not shown) [Example 1339] is lower in “% CAF 10 uM @ 60 min” value: 96.7% for the first, 68.7% for the second.

First: C=CC(=O)N1CCN(c2nc(=O)n3c4c(c(-c5cc(Cl)c(F)cc5F)c(C(F)(F)F)cc24)SC[C@@H]3CN2CCN(CC)CC2)CC1 (atropisomer, axis not shown) [Example 1338, (3S,10R)-7-(4-acryloylpiperazin-1-yl)-10-(5-chloro-2,4-difluorophenyl)-3-((4-ethylpiperazin-1-yl)methyl)-9-(trifluoromethyl)-2,3-dihydro-5H-[1,4]thiazino[2,3,4-ij]quinazolin-5-one]
Second: C=CC(=O)N1[C@H](C)CN(c2nc(=O)n3c4c(c(-c5cc(Cl)c(F)cc5F)c(C(F)(F)F)cc24)SC[C@@H]3CN2CCN(CC)CC2)C[C@@H]1C (atropisomer, axis not shown) [Example 1340, (3S,10S)-7-((3S,5R)-4-acryloyl-3,5-dimethylpiperazin-1-yl)-10-(5-chloro-2,4-difluorophenyl)-3-((4-ethylpiperazin-1-yl)methyl)-9-(trifluoromethyl)-2,3-dihydro-5H-[1,4]thiazino[2,3,4-ij]quinazolin-5-one]
The “% CAF 10 uM @ 60 min” value of the first is higher: 99% for the first, 89.4% for the second.

Going from `C=CC(=O)N1CCN(c2nc(=O)n3c4c(c(-c5cc(Cl)c(F)cc5F)c(C(F)(F)F)cc24)SC[C@@H]3CN2C[C@@H]3C[C@H]2CO3)CC1` (atropisomer, axis not shown) [Example 1341, (3S,10R)-3-(((1S,4S)-2-oxa-5-azabicyclo[2.2.1]heptan-5-yl)methyl)-7-(4-acryloylpiperazin-1-yl)-10-(5-chloro-2,4-difluorophenyl)-9-(trifluoromethyl)-2,3-dihydro-5H-[1,4]thiazino[2,3,4-ij]quinazolin-5-one] to `C=CC(=O)N1[C@H](C)CN(c2nc(=O)n3c4c(c(-c5ccc(F)cc5F)c(C(F)(F)F)cc24)SC[C@@H]3CN2CCN(C3CC3)CC2)C[C@@H]1C` (atropisomer, axis not shown) [Example 1346, (3S,10R)-7-((3S,5R)-4-acryloyl-3,5-dimethylpiperazin-1-yl)-3-((4-cyclopropylpiperazin-1-yl)methyl)-10-(2,4-difluorophenyl)-9-(trifluoromethyl)-2,3-dihydro-5H-[1,4]thiazino[2,3,4-ij]quinazolin-5-one], the “% CAF 10 uM @ 60 min” value falls from 97.4% to 96.9%.

For `C=CC(=O)N1CCN(c2nc(=O)n3c4c(c(-c5cc(Cl)c(F)cc5F)c(C(F)(F)F)cc24)SC[C@@H]3CN2C[C@@H]3C[C@H]2CO3)CC1` (atropisomer, axis not shown) [Example 1342, (3S,10S)-3-(((1S,4S)-2-oxa-5-azabicyclo[2.2.1]heptan-5-yl)methyl)-7-(4-acryloylpiperazin-1-yl)-10-(5-chloro-2,4-difluorophenyl)-9-(trifluoromethyl)-2,3-dihydro-5H-[1,4]thiazino[2,3,4-ij]quinazolin-5-one], the “% CAF 10 uM @ 60 min” value was 44.1%.
